Laboratory results as given in patent publication US6858638B2, “Substituted indazoles, compositions containing them, method of production and use” (Aventis Pharma S.A., priority 2002, dated 2005).

Key:
Format in all cases: biochemical
Aurora2 kinase = biological target: T1, Aurora2 kinase (Homo sapiens, UniProt O14965); test: Aurora2 kinase radioactivity scintillation assay using nickel chelate (NuMA substrate); settings: 10 μM; for inhibition at 10 µM: read-out: Aurora2 % inhib at 10 μM
T1 construct: A complete recombinant Aurora2 enzyme; His tag (N); made in house; host or cells: E. coli
T1 sequence (O14965 1-403): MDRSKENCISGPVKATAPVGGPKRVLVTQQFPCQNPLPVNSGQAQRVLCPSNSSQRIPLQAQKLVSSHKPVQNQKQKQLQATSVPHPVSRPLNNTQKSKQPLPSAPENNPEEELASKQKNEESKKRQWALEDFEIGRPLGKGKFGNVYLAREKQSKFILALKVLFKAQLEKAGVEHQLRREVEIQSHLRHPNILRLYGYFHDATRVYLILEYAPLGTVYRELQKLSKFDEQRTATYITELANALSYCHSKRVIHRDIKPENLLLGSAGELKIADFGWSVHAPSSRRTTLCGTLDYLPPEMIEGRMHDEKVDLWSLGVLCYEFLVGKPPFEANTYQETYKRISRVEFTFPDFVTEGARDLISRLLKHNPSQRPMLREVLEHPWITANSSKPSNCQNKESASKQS
Experimental: The inhibitory effect of compounds with respect to the Aurora2 kinase is determined with a radioactivity scintillation assay using nickel chelate.
A complete recombinant Aurora2 enzyme, the N-terminal end of which was labeled with histidine, was expressed in E. coli and purified to a quality close to homogeneity.
The C-terminal fragment (Q1687-H2101) of a NuMA (Nuclear protein that associates with the Mitotic Apparatus) expressed in E. coli, and the N-terminal end of which was labeled with histidine, was purified by nickel chelate chromatography and used as substrate in the Aurora2 kinase assay. In order to determine the kinase activity, the NuMA substrate is equilibrated by chromatography on a Pharmacia PD10 column, in a buffer (50 mM Tris HCl, pH7.5, 50 mM NaCl, 10 mM MgCl2) to which 10% (v/v) of glycerol and 0.05% (w/v) of NP40 have been added.
The kinase acivitity of Aurora2 is measured by scintillation with nickel chelate (New England Nuclear, model SMP107). Each well contains 100 μl of the following solution: 0.02 μM of Aurora2; 0.5 μM of NuMA substrate; 1 μM of ATP to which 0.5 μCi of ATP-[^33P] has been added. The solutions are incubated for 30 minutes at 37° C. The assay buffer is then removed and the wells are rinsed twice with 300 μl of kinase buffer. The radioactivity is measured in each well using a Packard Model Top Count NXT device.
The background noise is deduced from the measurement of radioactivity by measuring, in duplicate, in wells containing the radioactive ATP alone containing buffered kinase treated in the same way as the other samples.
The activity of the control is determined by measuring, in duplicate, the radioactivity in the complete assay mixture (ATP, Aurora2 and the NuMA substrate) in the absence of test compound.
The inhibition of the Aurora2 with a compound of the invention is expressed as percentage inhibition of the control activity in the absence of test compound. Staurosporine is added to each plate as an inhibition control.

human FAK = biological target: T2, human FAK (Homo sapiens, UniProt Q05397); test: FAK autophosphorylation inhibition, time resolved fluorescence (HTRF) assay; settings: 10 μM (values without asterisk); for inhibition at 10 µM: read-out: FAK % inhib at 10 μM
T2 construct: The complete cDNA of human FAK; made in house; host or cells: baculovirus expression system (vector pFastBac HTc)
Experimental: The inhibitory activity of the compounds on FAK is determined by measuring the inhibition of the autophosphorylation of the enzyme using a time resolved fluorescence (HTRF) assay.
The complete cDNA of human FAK, the N-terminal end of which was labeled with histidine, was cloned into a baculovirus expression vector pFastBac HTc. The protein was expressed and purified to approximately 70% homogeneity.
The kinase activity is determined by incubating the enzyme (6.6 μg/ml) with various concentrations of test compound in a 50 mM Hepes buffer, pH=7.2, containing 10 mM MgCl2, 100 μM Na3VO4 and 15 μM d'ATP for 1 hour at 37° C. The enzyme reaction is stopped by adding Hepes buffer, pH=7.0, containing […], 133 mM EDTA and 0.1% BSA, and the labeling is carried out, over 1 to 2 hours at ambient temperature, by adding to this buffer an anti-Histidine antibody labeled with XL665 and a monoclonal antibody phosphospecific for tyrosine, conjugated to europium cryptate (Eu-K). The characteristics of the two fluorophores are available in G. Mathis et al., Anticancer Research, 1997, 17, pages 3011-3014. The transfer of energy from the excited europium cryptate to the XL665 acceptor is proportional to the degree of autophosphorylation of FAK. The long-lived signal specific for XL-665 is measured in a Packard Discovery plate counter. All the assays are carried out in duplicate and the mean of the two assays is calculated. The inhibition of the FAK autophosphorylation activity with compounds of the invention is expressed as percentage inhibition compared to a control whose activity is measured in the absence of test compound. The [signal at 665 nm/signal at 620 nm] ratio is used for the calculation of the % inhibition.

[1] = biological target: T3, human IGF1R cytoplasmic domain (Homo sapiens, UniProt P08069); test: IGF1R autophosphorylation inhibition, time resolved fluorescence (HTRF) assay; settings: 10 μM; for inhibition at 10 µM: read-out: IGF1R % inhib at 10 μM
T3 construct: The human IGF1R cytoplasmic domain was cloned; made in house; host or cells: SF21 insect cells (baculovirus)
Experimental: The inhibitory activity of the compounds on IGF1R is determined by measuring the inhibition of the autophosphorylation of the enzyme using a time resolved fluorescence (HTRF) assay.
The human IGF1R cytoplasmic domain was cloned, as a fusion with glutathione S-transferase (GST), into the baculovirus expression vector pFastBac-GST. The protein was expressed in SF21 cells and purified to approximately 80% homogeneity.
The kinase activity was determined by incubating the enzyme with various concentrations of test compound in a 50 mM Hepes buffer, pH 7.5, containing 5 mM MnCl2, 50 mM NaCl, 3% glycerol, 0.025% Tween […] of ATP. The enzyme reaction is stopped by adding 100 mM Hepes buffer, pH 7.0, containing 0.4 M KF, 133 mM EDTA and 0.1% BSA containing an anti-GST antibody labeled with XL665 and an antiphosphotyrosine antibody conjugated to europium cryptate (Eu-K). The characteristics of the two fluorophores, XL-665 and Eu-K, are available in G. Mathis et al., Anticancer Research, 1997, 17, pages 3011-3014. The transfer of energy from the excited europium cryptate to the acceptor XL665 is proportional to the degree of autophosphorylation of IGF1R. The long-lived signal specific for XL-665 is measured in a Victor analyzer plate counter (Perkin-elmer). The inhibition of the IGF1R autophosphorylation activity with compounds of the invention is expressed as percentage inhibition compared to a control whose activity is measured in the absence of test compound.

human KDR enzyme = biological target: T4, human KDR enzyme (Homo sapiens, UniProt P35968); test: KDR substrate (PLCγ) phosphorylation, scintillation assay; settings: 10 μM; for inhibition at 10 µM: read-out: KDR % inhib at 10 μM
T4 construct: The cytoplasmic domain of the human KDR enzyme; GST; made in house; host or cells: SF21 insect cells (baculovirus)
Experimental: The inhibitory effect of the compounds is determined in an assay of substrate phosphorylation by the KDR enzyme in vitro using a scintillation technique (96-well plate, NEN).
The cytoplasmic domain of the human KDR enzyme was cloned in the form of a GST fusion into the baculovirus expression vector pFastBac. The protein was expressed in SF21 cells and purified to approximately 60% homogeneity.
The KDR kinase activity is measured in 20 mM MOPS, 10 mM MgCl2, 10 mM MnCl2, 1 mM DTT, 2.5 mM EGTA, 10 mM β-glycerophosphate, pH=7.2, in the presence of 10 mM MgCl2, 100 μM Na3VO4, 1 mM NaF. 10 μl of the compound are added to 70 μl of kinase buffer containing 100 ng of KDR enzyme at 4° C. The reaction is triggered by adding 20 μl of solution containing 2 μg of substrate (SH2-SH3 fragment of PLCγ expressed in the form of a GST fusion protein), 2 μCi γ^33P[ATP] and 2 μM cold ATP. After incubation for 1 hour at 37° C., the reaction is stopped by adding 1 volume (100 μl) of 200 mM EDTA. The incubation buffer is removed and the wells are washed three times with 300 μl of PBS. The radioactivity is measured in each well using Top Count NXT radioactivity counter (Packard).
The background noise is determined by measuring the radioactivity in four different wells containing the radioactive ATP and the substrate alone.
A control for total activity is measured in four different wells containing all the reagents (γ^33P-[ATP], KDR and PLCγ substrate) but in the absence of compound.
The inhibition of the KDR activity with the compound of the invention is expressed as percentage inhibition of the control activity determined in the absence of compound.
The compound SU5614 (Calbiochem) (1 μM) is included in each plate as an inhibition control.

T2 sequence (Q05397 whole entry): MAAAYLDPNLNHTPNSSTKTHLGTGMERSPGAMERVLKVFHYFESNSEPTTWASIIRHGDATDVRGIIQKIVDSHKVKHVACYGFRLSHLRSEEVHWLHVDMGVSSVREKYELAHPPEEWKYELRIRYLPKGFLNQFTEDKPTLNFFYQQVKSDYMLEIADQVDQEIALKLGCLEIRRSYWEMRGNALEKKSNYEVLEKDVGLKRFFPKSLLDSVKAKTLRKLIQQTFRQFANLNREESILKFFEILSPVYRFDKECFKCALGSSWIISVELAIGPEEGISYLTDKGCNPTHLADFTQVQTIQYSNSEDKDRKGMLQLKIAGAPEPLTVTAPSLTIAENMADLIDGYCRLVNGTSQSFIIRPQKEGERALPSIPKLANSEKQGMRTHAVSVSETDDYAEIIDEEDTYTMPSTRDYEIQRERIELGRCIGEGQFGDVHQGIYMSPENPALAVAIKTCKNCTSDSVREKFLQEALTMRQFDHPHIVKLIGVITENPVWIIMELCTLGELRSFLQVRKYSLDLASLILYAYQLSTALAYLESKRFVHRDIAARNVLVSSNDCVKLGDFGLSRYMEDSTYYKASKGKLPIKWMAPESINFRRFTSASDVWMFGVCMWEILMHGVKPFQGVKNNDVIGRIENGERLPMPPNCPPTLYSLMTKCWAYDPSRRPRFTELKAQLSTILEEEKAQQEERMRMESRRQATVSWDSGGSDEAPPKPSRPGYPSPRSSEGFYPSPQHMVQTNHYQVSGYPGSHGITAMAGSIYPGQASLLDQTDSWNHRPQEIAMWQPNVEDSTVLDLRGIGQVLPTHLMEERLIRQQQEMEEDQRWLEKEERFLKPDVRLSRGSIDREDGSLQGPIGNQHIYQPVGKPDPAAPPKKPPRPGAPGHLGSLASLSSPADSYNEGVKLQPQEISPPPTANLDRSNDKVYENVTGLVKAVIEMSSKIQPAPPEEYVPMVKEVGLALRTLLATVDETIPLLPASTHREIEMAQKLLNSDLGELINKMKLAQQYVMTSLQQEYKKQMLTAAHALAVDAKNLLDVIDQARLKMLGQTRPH
T3 sequence (P08069 960-1367 limits assumed): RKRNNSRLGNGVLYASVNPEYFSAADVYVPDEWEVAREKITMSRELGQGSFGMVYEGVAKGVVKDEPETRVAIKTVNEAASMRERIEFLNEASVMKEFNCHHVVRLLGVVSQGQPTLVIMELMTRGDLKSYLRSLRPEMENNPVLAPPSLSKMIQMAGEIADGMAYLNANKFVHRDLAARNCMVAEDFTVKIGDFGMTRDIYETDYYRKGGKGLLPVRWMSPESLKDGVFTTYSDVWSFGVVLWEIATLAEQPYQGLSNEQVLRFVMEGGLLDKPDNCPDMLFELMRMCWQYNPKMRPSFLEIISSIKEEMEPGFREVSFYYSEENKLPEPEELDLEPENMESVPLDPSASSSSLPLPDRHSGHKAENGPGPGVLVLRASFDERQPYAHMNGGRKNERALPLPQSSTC
T4 sequence (P35968 786-1356 limits assumed): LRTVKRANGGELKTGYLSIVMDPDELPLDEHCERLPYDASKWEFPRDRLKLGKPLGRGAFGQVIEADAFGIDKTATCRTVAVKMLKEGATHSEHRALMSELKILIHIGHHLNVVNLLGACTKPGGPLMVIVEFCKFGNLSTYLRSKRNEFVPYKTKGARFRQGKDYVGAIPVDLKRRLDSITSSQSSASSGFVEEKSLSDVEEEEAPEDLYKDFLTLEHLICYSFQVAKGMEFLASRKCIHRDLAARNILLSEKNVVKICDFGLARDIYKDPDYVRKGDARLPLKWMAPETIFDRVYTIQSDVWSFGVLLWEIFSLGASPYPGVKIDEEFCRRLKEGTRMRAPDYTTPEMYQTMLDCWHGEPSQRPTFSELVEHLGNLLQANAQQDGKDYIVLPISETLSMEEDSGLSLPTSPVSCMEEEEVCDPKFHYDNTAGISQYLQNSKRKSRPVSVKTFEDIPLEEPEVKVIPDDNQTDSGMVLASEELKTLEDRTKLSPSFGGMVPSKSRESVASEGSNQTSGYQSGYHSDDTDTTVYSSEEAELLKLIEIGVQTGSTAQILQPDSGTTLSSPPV

Row | Structure (SMILES) | inhibition at 10 µM (Aurora2 kinase) [%] | inhibition at 10 µM (human FAK) [%] | inhibition at 10 µM [1] [%] | inhibition at 10 µM (human KDR enzyme) [%] | Aurora2 % inhib at 10 μM (Aurora2 kinase) [%] | FAK % inhib at 10 μM (human FAK) [%] | IGF1R % inhib at 10 μM [1] [%] | KDR % inhib at 10 μM (human KDR enzyme) [%]
1 | CS(=O)(=O)c1ccccc1S(=O)(=O)Nc1ccc2[nH]nc(C(=O)NC3CCCCC3)c2c1 [Example 29, N-Cyclohexyl-5-(2-methylsulfonylbenzenesulfonylamino)-1H-indazole-3-carboxamide] | 80 | 0 | 96 | 8 | – | – | – | –
2 | O=S(=O)(Nc1ccc2[nH]nc(-c3ccc(O)cc3)c2c1)c1ccccc1 [Example 34, N-[3-(4-Hydroxyphenyl)-1H-indazol-5-yl]benzenesulfonamide] | 100 | 87 | 89 | 96 | – | – | – | –
3 | CS(=O)(=O)c1ccccc1S(=O)(=O)Nc1ccc2[nH]nc(-c3ccc(O)cc3)c2c1 [Example 35, N-[3-(4-Hydroxyphenyl)-1H-indazol-5-yl]-2-methylsulfonylbenzenesulfonamide] | – | – | – | – | 94 | 97 | 94 | 80
4 | CC(=O)Nc1n[nH]c2ccc(NS(=O)(=O)c3ccccc3S(C)(=O)=O)cc12 [Example 43, N-[5-(2-Methylsulfonylbenzenesulfonylamino)-1H-indazol-3-yl)-acetamide] | 85 | 83 | 96 | 25 | – | – | – | –
5 | CC(=O)Nc1n[nH]c2ccc(NS(=O)(=O)c3cc(F)cc(F)c3)cc12 [Example 44, N-[5-(3,5-Difluorobenzenesulfonylamino)-1H-indazol-3-yl]acetamide] | – | 95 | 82 | 37 | – | – | – | –
6 | CS(=O)(=O)c1ccccc1S(=O)(=O)Nc1ccc2[nH]nc(NC(=O)c3ccccc3)c2c1 [Example 45, N-[5-(2-Methylsulfonylbenzenesulfonylamino)-1H-indazol-3-yl]benzamide] | 95 | 100 | 95 | 55 | – | – | – | –
7 | O=C(Nc1n[nH]c2ccc(NS(=O)(=O)c3cc(F)cc(F)c3)cc12)c1ccccc1 [Example 46, N-[5-(3,5-Difluorobenzenesulfonylamino)-1H-indazol-3-yl]benzamide] | 95 | 90 | 82 | 82 | – | – | – | –
8 | CS(=O)(=O)c1ccccc1S(=O)(=O)Nc1ccc2[nH]nc(-c3ccccc3N)c2c1 [Example 49, N-[3-(2-Aminophenyl)-1H-indazol-5-yl]-2-methylsulfonylbenzenesulfonamide] | 17 | 40 | 50 | 18 | – | – | – | –
9 | CS(=O)(=O)c1ccccc1S(=O)(=O)Nc1ccc2[nH]nc(-c3cc4cccnc4[nH]3)c2c1 [Example 57, 2-Methylsulfonyl-N-[3-(1H-pyrrolo[2,3-b]pyridin-2-yl)-1H-indazol-5-yl]benzenesulfonamide] | 53 | 48 | 0 | 22 | – | – | – | –
10 | COc1ccc2[nH]c(-c3n[nH]c4ccc(NS(=O)(=O)c5ccccc5S(C)(=O)=O)cc34)cc2c1 [Example 58, 2-Methylsulfonyl-N-[3-(5-methoxy-1H-indol-2-yl)-1H-indazol-5-yl]benzenesulfonamide] | 100 | 97 | 100 | 97 | – | – | – | –
11 | CS(=O)(=O)c1ccccc1S(=O)(=O)Nc1ccc2[nH]nc(-c3cccnc3)c2c1 [Example 59, 2-Methylsulfonyl-N-(3-pyridin-3-yl-1H-indazol-5-yl)benzenesulfonamide] | 100 | 95 | 88 | 40 | – | – | – | –
12 | CS(=O)(=O)c1ccccc1S(=O)(=O)Nc1ccc2[nH]nc(-c3ccc(C(=O)O)cc3)c2c1 [Example 69, 4-[5-(2-Methylsulfonylbenzenesulfonamino)-1H-indazol-3-yl]benzoic acid] | 99 | 98 | 61 | 73 | – | – | – | –
